Tests used:
PC-3 = assay: Proliferation inhibition of various cancer cells (PrestoBlue), PC-3; format: cell-based; settings: Homo sapiens, Prostate cancer, 72 hours
Procedure: (§1) The efficacies of compounds 41 and 86 of Formula (I) in inhibiting proliferation of eleven types of cancer cells were determined using PrestoBlue™ Cell Viability Reagent (ThermoFisher Scientific, USA). The eleven types of cancer cells are small cell lung cancer, non-small cell lung cancer, liver cancer, pancreatic cancer, breast cancer, colon cancer, prostate cancer, neuroblastoma, brain cancer, leukemia, and cholangiocarcinoma.
(§2) More specifically, […], i.e., NCI-H82 (ATCC® HTB-175), NCI-H446 (ATCC® HTB-171), NCI-H69 (ATCC® HTB-119), NCI-H146 (ATCC® HTB-173), NCI-H1792 (ATCC® CRL-5895), NCI-H1299 (ATCC® CRL-5803), SNU-398 (ATCC® CRL-2233), PSN-1 (ATCC® CRL-3211), MIA PaCa-2 (ATCC® CRL-1420), MDA-MB-231 (ATCC® HTB-26), LOVO (ATCC® CCL-229), COLO 205 (ATCC® CCL-222), PC-3 (ATCC® CRL-1435), SK-N-BE(2) (ATCC® CRL-2271), D341 Med (ATCC® HTB-187), K562 (ATCC® CCL-243), MOLM-13 (DSMZ-German Collection of Microorganisms and Cell Cultures GmbH, ACC No. 554), and SNU-478 (KCLB 00478), were seeded at a density of 4000-10000 cells per well in 96-well plates for 24 hours. The cancer cells were then treated with each compound at various concentrations (0-10 μM), followed by incubation for another 72 hours. IC50 values were computed based on duplicated 8-point titration.

SK-N-BE(2) = assay: Proliferation inhibition of various cancer cells (PrestoBlue), SK-N-BE(2); format: cell-based; settings: Homo sapiens, SKNBE2; Neuroblastoma; 72 hours
Procedure: as §1, §2

NCI-H446 = assay: Small-cell-lung cancer cell proliferation inhibition assay (PrestoBlue), NCI-H446; format: cell-based; settings: Homo sapiens, cMYC amplified SCLC cells, 72 hours
Procedure: Small cell lung cancer cells NCI-H82 (ATCC HTB-175, cMYC amplified), NCI-H446 (ATCC® HTB-171, cMYC amplified), and NCI-H69 (ATCC® HTB-119, MYCN amplified) were seeded at the density of 5000-10000 cells per well in 96-well plates. After 24 hours, the cancer cells were treated with each compound at various concentrations (0-10 μM) and then incubated for another 72 hours. IC50 values were computed based on duplicated 8-point titration.

NCI-H1299 = assay: Proliferation inhibition of various cancer cells (PrestoBlue), NCI-H1299; format: cell-based; settings: Homo sapiens, Non-small cell lung cancer, 72 hours
Procedure: as §1, §2

[1] = molecular target: T1, human Aurora A (amino acids 123-401) (Homo sapiens, UniProt O14965); assay: Kinase-Glo Luminescent Kinase assay, in vitro inhibition of Aurora A kinase activity; format: biochemical; settings: recombinant GST-tagged Aurora A, 5.0 μM ATP, 37° C., 120 minutes
T1 construct: human Aurora A (amino acids 123-401) was expressed in Sf9 insect cells; GST; made in house; host or cells: Sf9 insect cells
T1 sequence (O14965 123-401): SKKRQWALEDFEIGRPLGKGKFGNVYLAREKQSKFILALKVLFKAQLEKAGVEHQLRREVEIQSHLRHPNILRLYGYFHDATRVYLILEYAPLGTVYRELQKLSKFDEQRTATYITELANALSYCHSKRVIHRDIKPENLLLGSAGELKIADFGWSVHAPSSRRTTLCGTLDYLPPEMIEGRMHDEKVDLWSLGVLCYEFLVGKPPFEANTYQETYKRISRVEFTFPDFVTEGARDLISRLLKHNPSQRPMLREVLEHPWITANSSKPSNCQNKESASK
Outline: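 GST-tagged Aurora A (aa 123-401) expressed in Sf9 cells, incubated with compound at 100 nM, 5.0 μM ATP and 15 μM tetra(-LRRASLG) peptide in Tris-HCl pH 7.4 with MgCl2, BSA and DTT, 120 min at 37° C. Remaining ATP read by Kinase-Glo Plus luminescence after 20 min at 25° C.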

NCI-H82 = assay: Proliferation inhibition of various cancer cells (PrestoBlue), NCI-H82; format: cell-based; settings: Homo sapiens, Small cell lung cancer, 72 hours
Procedure: as §1, §2

MOLM-13 = assay: Proliferation inhibition of various cancer cells (PrestoBlue), MOLM-13; format: cell-based; settings: Homo sapiens, Leukemia, 72 hours
Procedure: as §1, §2

MDA-MB-231 = assay: Proliferation inhibition of various cancer cells (PrestoBlue), MDA-MB-231; format: cell-based; settings: Homo sapiens, Breast cancer, 72 hours
Procedure: as §1, §2

cMYC = assay: Western blot, cMYC protein level in NCI-H82 cells; format: cell-based, human; settings: NCI-H82 (SCLC) cells; 50, 200, 500, 1000 nM; 24 hours; FIG. 1
Procedure: Compounds 41 and 86, both covered by Formula (I), were tested to assess their efficacies in reducing the level of cMYC oncoprotein in a human small-cell-lung-cancer (“SCLC”) cell line NCI-H82 (ATCC® HTB-175, USA) and the level of MYCN oncoprotein in a human neuroblastoma cell line SK-N-BE(2) (ATCC® CRL-2271, USA) as follows.
NCI-H82 was maintained in RPMI1640 medium (ThermoFisher Scientific, USA) supplemented with 10% fetal bovine serum (FBS, HyClone, USA) and antibiotics. SK-N-BE(2) was maintained in Minimum Essential Medium (MEM, ThermoFisher Scientific, USA) supplemented with 10% FBS (HyClone, USA) and antibiotics. The cancer cells from each cell line were treated with each of compounds 41 and 86 at 4 different compound concentrations, i.e., 50 nM, 200 nM, 500 nM, and 1000 nM. After 24 hours, each cancer cell solution was washed with 1× phosphate buffered saline (PBS), lysed in 1× Laemmli protein sample buffer, and boiled at 100° C. for 10 minutes. Each lysate was separated by SDS-PAGE, transferred to polyvinylidene fluoride (PVDF, Millipore, USA) membrane, and blotted with antibodies. Primary antibodies used for Western blotting were cMYC (Cell Signaling, Cat No. 5605S), MYCN (Cell Signaling, 9405S), PARP-1 (Abcam, ab32378), and GAPDH (Genetex, GTX100118). […]

IC50 (PC-3) [µM] | IC50 (SK-N-BE(2)) [µM] | IC50 (NCI-H446) [µM] | IC50 (NCI-H1299) [µM] | IC50 [1] [µM] | IC50 (NCI-H82) [µM] | IC50 (MOLM-13) [µM] | IC50 (MDA-MB-231) [µM] | Structure (SMILES) | protein level of cMYC (cMYC)
< 10 | < 0.2 | < 1 | < 1 | < 0.1 | < 0.2 | < 0.2 | < 0.3 | CCN1CCN(c2cc(Nc3cc(C)[nH]n3)nc(N[C@H]3CCN(C(=O)c4ccc(Cl)cc4F)C3)n2)CC1 [Compound 41] | greatly reduced
< 10 | < 0.2 | < 1 | < 1 | < 0.1 | < 0.3 | < 0.2 | < 0.3 | CCN1CCN(c2cc(Nc3cc(C)[nH]n3)nc(NC3CCN(C(=O)c4cccc(Cl)c4F)CC3)n2)CC1 [Compound 86] | greatly reduced

From patent US12679827B2, “Pyrimidine compounds and their pharmaceutical uses” (National Health Research Institutes, priority 2020, dated 2026)
